Source: patent US6982277B2, “P53 inhibitors and therapeutic use of the same” (The Board of Trutees of the University of Illinois, priority 1999, dated 2006)
“Also recorded” adds a separate entry of the source.

Legend:
[1] = system: p53; experiment: suppression of p53-dependent transcriptional activation (lacZ, X-gal staining) in ConA cells treated with doxorubicin; assay type: cell-based, mouse; settings: 0.2 μg/ml doxorubicin, 24 hours; test compounds about 10 to about 20 μM
[2] = toxicity of chemotherapeutics with p53 inhibitor; settings: mouse, in vivo
[3] = system: p53; experiment: long-term survival and cancer development of mice after whole body radiation; assay type: in vivo; settings: 30 survivors rescued from lethal gamma irradiation, seven months after irradiation
Method: Both wild-type (wt) mice and p53-deficient mice were irradiated. One group of the wild-type mice were treated with PFT-α. […] In contrast, fifteen untreated wild-type mice died within 100 days. The p53-deficient mice were unaffected for about 125 days, then all expired over the next 25–30 days.
Suppression of p53 typically results in the survival of cells that otherwise are eliminated by p53, which can increase the risk of new cancer development. For example, p53-deficient mice are extremely sensitive to radiation-induced tumorigenesis. […] Thus, temporary suppression of p53 activity is different from p53 deficiency in terms of cancer predisposition.

[4] = toxicity comparison (FIG. 16); settings: compared with PFT-α
Method: Then, a p53 inhibitor was applied in a concentration of 1 μM to 20 μM to the test cells in the presence of the p53 activator. Cytotoxicity of the p53 inhibitors also was determined by standard assays. An estimation of antiapoptotic activity of the p53 inhibitor compounds was based on an ability to suppress apoptotic cell death in standard cell systems sensitive to p53-dependent apoptosis (i.e., mouse embryonic fibroblasts transformed with Ela+ras, line C8, described by S. W. Lowe et al., Cell, 74, pp. 957–968 (1993)). p53 dependence of the compound activity was analyzed by testing its effect on p53-deficient cells (i.e., radiosensitivity or drug sensitivity of p53−/− mouse embryonic fibroblasts transformed with Ela+ras, line A4, described by Lowe et al., 1993).
(§1) As previously stated, the tests and experiments set forth in FIGS. 1–15 using PFT-α were repeated using PFT-β.

[5] = system: p53; experiment: survival of mice after whole-body gamma irradiation; assay type: in vivo, mouse; settings: 2.2 mg/kg i.p. five minutes prior to irradiation
Method: In particular, FIG. 7 illustrates that pifithrin-alpha protects mice from radiation-induced death. In this test, two different strains of mice (C57BL and Balb(c)) were treated with lethal and sublethal doses of whole-body gamma radiation. A comparison was made between (i) untreated unirradiated mice, (ii) unirradiated mice that received a single intraperitoneal (i.p.) injection of PFT-α, (iii) untreated gamma-irradiated mice, and (iv) mice injected intraperitoneally with PFT-α immediately before gamma irradiation.
In the plots of FIG. 7, whole-body gamma irradiated mice (60 total) were divided into four groups. Ten mice from each group were injected i.p. with pifithrin-alpha (2.2 mg/kg) five minutes prior to irradiation. […] The experiments were repeated at least three times with 10 mice per each experimental subgroup.

[6] = system: p53; experiment: p53 protein in UV-irradiated ConA cells (immunoblotting, two-dimensional gel, nuclear and cytoplasmic fractions); assay type: cell-based, mouse
Method: PFT-α was added to the cells before UV treatment and total cell lysates were prepared 18 hours later.
FIG. 6(d) illustrates that PFT-α changes the nuclear and cytoplasmic distribution of p53. Nuclear and cytoplasmic fractions were isolated from UV-treated ConA cells 6 hours after UV irradiation. p53 and p21^waf1 proteins were detected by immunoblotting. […] In particular, results of a gel shift assay using cell lysates from either untreated or UV-irradiated ConA cells grown in medium containing PFT-α are shown. […] The decline in the amount of bound DNA is proportional to the overall decrease in p53 content in the presence of PFT-α.

[7] = system: p53-deficient tumor xenografts; experiment: therapy response of p53-deficient tumors in mice; assay type: in vivo, mouse; settings: mouse, in vivo
Source text: The above-described tests using PFT-α and PFT-β illustrate the therapeutic use of temporary p53 inhibitors to reduce the side effects of radiation therapy or chemotherapy for human cancers that have lost functional p53.

[8] = system: p53; experiment: tests and experiments of FIGS. 1–15 repeated using PFT-β
Source text: The results of these tests are illustrated in attached FIGS. 1–16. These figures, in general, are based on tests performed on compounds of structural formulae (V) and (VI). In the following Figures, test results illustrated for compound (V), i.e., PFT-α, were repeated for compound (VI), i.e., PFT-β.
as §1

[9] = system: p53; experiment: 14C-thymidine incorporation in tissues of gamma-irradiated mice (autoradiograms); assay type: in vivo, mouse; settings: 10 Gy; single i.p. injection 2.2 mg/kg five minutes before irradiation
Method: Four-week-old p53-deficient mice and p53 wild-type (wt) mice were whole body gamma irradiated (10 Gy). Pifithrin-alpha was injected in one of the p53 wild-type animals five minutes before irradiation. ^14C-thymidine (10 mCi per animal) was injected intraperitoneally into each mouse 8 hours after irradiation. The mice were sacrificed 24 hours after irradiation and whole body sectioned (25 μm thick) using cryostatic microtome were prepared and exposed to X-ray film to monitor the distribution of ^14C in the tissue. FIG. 8 presents autoradiograms of representative sections. Arrows indicate ^14C-thymidine incorporation in the skin and intestine.

[10] = system: tumor; experiment: tumor volume in C57BL mice treated with cyclophosphamide; assay type: in vivo, mouse; settings: CTX at days 0, 1, and 2, sixteen days
Method: FIG. 15 is a plot of tumor volume vs. days for C57BL mice treated with cyclophosphamide (CTX), with and without administration of PFT-β. The mice were treated with CTX at days 0, 1, and 2, and tumor volume was monitored for sixteen days.

SMILES | suppression of p53-dependent lacZ expression (X-gal) [1] | toxicity of chemotherapeutics [2] | tumors or pathological lesions in survivors / tumor incidence in irradiated animals [3] | toxicity [4] | survival at higher, lethal doses of irradiation [5] | nuclear and cytoplasmic distribution of p53 ([6]; 6 hours after UV irradiation) | phosphorylation / post-translational modifications of p53 ([6]; after DNA-damaging treatments) | efficacy of chemo- or radiation therapy of p53 deficient mouse tumors [7] | test results compared with PFT-α [8] | p53-mediated growth arrest in vivo (14C-thymidine incorporation) [9] | tumor growth (tumor volume) [10]
N=c1sc2c(n1CC(=O)c1ccc(I)cc1)CCCC2 [86B10, 2-[2-imino-4,5,6,7-tetrahydro-1,3-benzothiazol-3(2H)-yl]-1-(4-iodophenyl)-1-ethanone] | similar, but weaker, p53-inhibition, effect than PFT-α | – | – | – | – | – | – | – | – | – | –
Cc1ccc(-c2cn3c4c(sc3n2)CCCC4)cc1 [PFT-β, 2-(4-methylphenyl)-5,6,7,8-tetrahydrobenzo[d]imidazo[2,1-b]thiazole] | – | reduce the toxicity of chemotherapeutics | do not result in a high incidence of tumors in irradiated animals | substantially lower than the toxicity of PFT-α | rescue mice from lethal doses of gamma radiation using a single i.p. injection | reduce nuclear accumulation of p53 | do not effect either post-translational modifications of p53 or the DNA binding affinity of p53 | do not reduce the efficacy of chemo- or radiation therapy of p53 deficient mouse tumors | essentially identical to test results using PFT-α; also recorded: essentially identical to the results from the tests using PFT-α | suppress p53-dependent radiation-induced growth arrest in rapidly proliferating mouse tissues | substantial decrease in tumor growth
